Consider 11 compounds from ChEMBL document CHEMBL1201862, “PubChem BioAssay data set” (2004).

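Cells were grown in 96-well plates and exposed to each compound for 48 hours at five concentrations; endpoints were interpolated linearly between bracketing concentrations, or set to the highest concentration if not reached. The concentration for 50% growth inhibition is given as GI50.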 The source made the active and inactive calls. Rule as the data show it: active = GI50 up to about 1.1 µM and inactive = higher.

Among the test systems are ACHN; BT-549; EKVX; HCT-15; HL-60; HOP-62; MDA-N; NCI-H226; NCI-H23; NCI/ADR-RES; OVCAR-8; SF-268; SF-539; SK-MEL-5; SNB-19; SW-620; T47D; UACC-62; K562; OVCAR-4.
What all share (experiment): NCI-60 cell line screen, 48 h

For the compound `CC(=O)OCC1OC(NC(=S)Nn2c(=O)[nH]c3ccccc3c2=O)C(OC(C)=O)C(OC(C)=O)C1OC(C)=O` (centres undefined), the GI50 with ACHN is > 100 µM (inactive); in the assay on BT-549, > 100 µM (inactive); with EKVX it was > 100 µM (inactive); in the assay with HCT-15, greater than 100 µM; with HL-60, 57.4 µM (inactive); in the assay with HOP-62, > 100 µM (inactive). For the same compound, the GI50 with MDA-N, in the assay on NCI-H226, with NCI-H23, in the assay on NCI/ADR-RES, in the assay with OVCAR-8 and with SF-268 was > 100 µM (inactive) in each case. Moreover, the GI50 with SF-539, with SK-MEL-5, in the assay on SNB-19, with SW-620, in the assay on T47D and in the assay with UACC-62 was > 100 µM (inactive) in each case.

As for `c1nncn1C12C3C4C5C3C1C5C42` (centres undefined), the GI50 was > 100 µM (inactive) in the assay with ACHN; > 100 µM (inactive) with BT-549; > 100 µM (inactive) with EKVX; greater than 100 µM in the assay on HCT-15; > 100 µM (inactive) in the assay on HL-60; > 100 µM (inactive) with HOP-62. In addition, the GI50 in the assay with K562, in the assay on MDA-N, in the assay with NCI-H226, in the assay with NCI-H23, in the assay with NCI/ADR-RES and in the assay on OVCAR-8 was > 100 µM (inactive) in each case. Further, the GI50 in the assay with SF-268, in the assay on SF-539, in the assay on SK-MEL-5, in the assay on SNB-19, in the assay on SW-620 and in the assay with T47D was > 100 µM (inactive) throughout.

For `Oc1ccc(-c2nc3cc(F)ccc3s2)cc1`, the GI50 is 20.3 µM (inactive) in the assay with ACHN; 20 µM (inactive) with BT-549; 13.2 µM (inactive) in the assay on EKVX; 23.6 µM in the assay on HCT-15; 21.7 µM (inactive) with HL-60; 24.7 µM (inactive) in the assay on HOP-62. Further, the GI50 in the assay on K562 is 22.6 µM (inactive); in the assay with MDA-N it was 28.4 µM (inactive); in the assay with NCI-H226, 17.3 µM (inactive); in the assay on NCI-H23, 32.3 µM (inactive); in the assay on NCI/ADR-RES, 20 µM (inactive); in the assay on OVCAR-4, 13.6 µM (inactive). The GI50 with OVCAR-8 was 31.6 µM (inactive); in the assay with SF-268 it was 26.7 µM (inactive); in the assay on SK-MEL-5, 19.5 µM (inactive); with SNB-19 it was 36.7 µM (inactive); in the assay on SW-620 it was 41.5 µM (inactive); in the assay on T47D it was 5.22 µM (inactive). Also, the GI50 in the assay with UACC-62 was 17.5 µM (inactive).

As to `CCCNC(=O)N1CC(CN2CCN(c3ccccc3)CC2)O/C1=N/C(=O)Nc1ccccc1` (centres undefined), the GI50 in the assay on ACHN was > 100 µM (inactive); with BT-549 it was > 100 µM (inactive); in the assay on EKVX, 71.8 µM (inactive); in the assay with HL-60, 3.83 µM (inactive); in the assay on HOP-62, > 100 µM (inactive); in the assay on K562, > 100 µM (inactive). Also, the GI50 is > 100 µM (inactive) with MDA-N; 2.09 µM (inactive) in the assay with NCI-H226; 73.8 µM (inactive) in the assay on NCI-H23; 50.6 µM (inactive) in the assay on NCI/ADR-RES; 90.4 µM (inactive) in the assay on OVCAR-4; > 100 µM (inactive) with SF-268. Besides, the GI50 is 40.8 µM (inactive) in the assay with SK-MEL-5; > 100 µM (inactive) in the assay on SNB-19; > 100 µM (inactive) in the assay with SW-620; 18.2 µM (inactive) in the assay with T47D; 99.3 µM (inactive) in the assay on UACC-62.

Take `CC1CNC(c2cccc(OCc3ccc(COc4cccc(C5=NC(C)CN5)c4)cc3)c2)=N1` (centres undefined): the GI50 in the assay on ACHN is > 100 µM (inactive); in the assay with BT-549, 61.5 µM (inactive); in the assay with EKVX, 45.8 µM (inactive); in the assay on HCT-15 it was greater than 100 µM; in the assay on HL-60, 23.2 µM (inactive); in the assay on HOP-62 it was 40.6 µM (inactive). For the same compound, the GI50 with K562 is 5.7 µM (inactive); with MDA-N, 38.6 µM (inactive); in the assay on NCI-H23, 43.7 µM (inactive); in the assay with NCI/ADR-RES it was > 100 µM (inactive); in the assay on OVCAR-4, 49.7 µM (inactive); in the assay with OVCAR-8, 56.8 µM (inactive). The GI50 in the assay with SF-268 is 35.6 µM (inactive); in the assay on SF-539, 16.3 µM (inactive); in the assay on SK-MEL-5, 22.9 µM (inactive); in the assay on SNB-19, 68.1 µM (inactive); with SW-620, 42.6 µM (inactive); in the assay on T47D, 35.9 µM (inactive). Also, in the assay on UACC-62, the GI50 is 99.5 µM (inactive).

With `Oc1cc(-c2cccc(F)c2)nc2cc3c(cc12)OCO3`, the GI50 with ACHN is 0.119 µM (active); in the assay with BT-549, 0.2 µM (active); in the assay on EKVX it was 6.56 µM (inactive); in the assay with HCT-15 it was 0.0711 µM; with HL-60 it was 0.0313 µM (active); with HOP-62, 0.165 µM (active). For the same compound, the GI50 in the assay on K562 was 0.0653 µM (active); in the assay on MDA-N, 0.0111 µM (active); in the assay with NCI-H23 it was 0.294 µM (active); in the assay with NCI/ADR-RES, 0.0199 µM (active); with OVCAR-4, 1.26 µM (inactive); with OVCAR-8, 0.0347 µM (active). Moreover, the GI50 with SF-268 is 0.115 µM (active); with SF-539, 0.0573 µM (active); in the assay with SK-MEL-5, 0.03 µM (active); in the assay with SNB-19, 0.124 µM (active); with SW-620 it was 0.0356 µM (active); with T47D, > 100 µM (inactive). In the assay on UACC-62, the GI50 was 0.0345 µM (active).

For `COc1c(OC/C=C(\C)CCC=C(C)C)ccc2ccc(=O)oc12` [COLLININ], the GI50 is > 100 µM (inactive) in the assay on ACHN; 53.3 µM (inactive) in the assay on BT-549; 83.9 µM (inactive) in the assay on EKVX; 64.9 µM with HCT-15; 43.4 µM (inactive) in the assay with HL-60; > 100 µM (inactive) in the assay with HOP-62. Also, the GI50 was > 100 µM (inactive) in the assay on K562; > 100 µM (inactive) in the assay on MDA-N; > 100 µM (inactive) in the assay with NCI-H23; 95.9 µM (inactive) with NCI/ADR-RES; 51.8 µM (inactive) in the assay on OVCAR-4; > 100 µM (inactive) in the assay with OVCAR-8. Besides, the GI50 was 96.8 µM (inactive) in the assay with SF-268; > 100 µM (inactive) with SF-539; 48.1 µM (inactive) with SK-MEL-5; 65.2 µM (inactive) in the assay on SNB-19; > 100 µM (inactive) in the assay on SW-620; 62.5 µM (inactive) in the assay with T47D. Besides, the GI50 with UACC-62 is 94.2 µM (inactive).

As to `Fc1ccccc1C1SCC2=Nc3ccccc3CN21` (centres undefined), the GI50 with ACHN is > 100 µM (inactive); in the assay with BT-549, > 100 µM (inactive); in the assay on EKVX, > 100 µM (inactive); in the assay with HCT-15 it was greater than 100 µM; in the assay on HL-60 it was > 100 µM (inactive); in the assay on HOP-62, 67.1 µM (inactive). Also, the GI50 with K562, with MDA-N, with NCI-H23, in the assay on NCI/ADR-RES, in the assay on OVCAR-4 and in the assay on OVCAR-8 was > 100 µM (inactive) in each case. In addition, the GI50 was 54.1 µM (inactive) in the assay with SF-268; 94.8 µM (inactive) in the assay with SF-539; 89.7 µM (inactive) with SK-MEL-5; > 100 µM (inactive) with SNB-19; > 100 µM (inactive) in the assay on SW-620; > 100 µM (inactive) in the assay with T47D. Moreover, the GI50 with UACC-62 is 99.8 µM (inactive).

Consider `CCCCCCCCCCCCC(=O)NCC(=O)NC(Cc1ccccc1)C(=O)Oc1ccc([N+](=O)[O-])cc1` (centres undefined), for which the GI50 is > 100 µM (inactive) in the assay with ACHN; 44.9 µM (inactive) in the assay on BT-549; 70.6 µM (inactive) in the assay with EKVX; 38.1 µM in the assay with HCT-15; 64.4 µM (inactive) in the assay on HL-60; > 100 µM (inactive) in the assay with HOP-62. Moreover, the GI50 is > 100 µM (inactive) in the assay on MDA-N; 33.5 µM (inactive) in the assay with NCI-H226; 57.7 µM (inactive) with NCI-H23; 57.1 µM (inactive) in the assay with NCI/ADR-RES; 48.2 µM (inactive) with OVCAR-8; 31.9 µM (inactive) in the assay with SF-268. The GI50 in the assay on SF-539 was 91.8 µM (inactive); in the assay on SK-MEL-5 it was 72.4 µM (inactive); in the assay with SNB-19 it was 15.2 µM (inactive); in the assay with SW-620, 39.9 µM (inactive); in the assay with T47D, 92.9 µM (inactive); with UACC-62, 60.3 µM (inactive).

For the compound `COC1=CC(=O)c2c(cc(COP(=O)(N(C)CCBr)N(C)CCBr)n2C)C1=O`, the GI50 is < 0.0108 µM (active) in the assay on ACHN; 1.38 µM (inactive) in the assay on BT-549; 2.03 µM (inactive) in the assay on EKVX; 0.491 µM in the assay with HCT-15; 0.0543 µM (active) with HL-60; < 0.0322 µM (active) with HOP-62. In addition, the GI50 with K562 was 1.52 µM (inactive); with MDA-N, 1.21 µM (inactive); with NCI-H23 it was < 0.0212 µM (active); with NCI/ADR-RES, 1.24 µM (inactive); in the assay with OVCAR-4, 5.32 µM (inactive); in the assay with OVCAR-8 it was 0.241 µM (active). The GI50 in the assay with SF-268 is 0.183 µM (active); in the assay with SF-539, < 0.0178 µM (active); in the assay on SK-MEL-5 it was 1.07 µM (active); in the assay with SNB-19, 0.798 µM (active); in the assay with SW-620, 0.187 µM (active); in the assay on T47D, 0.55 µM (active). In the assay on UACC-62, the GI50 was 0.414 µM (active).

For `O=C(Nc1cccc(F)c1)c1cc2ccc(O)cc2o/c1=N\c1cccc(F)c1`, the GI50 is 4.88 µM (inactive) in the assay with ACHN; 4.82 µM (inactive) in the assay on BT-549; 3.78 µM (inactive) in the assay on EKVX; 3.15 µM with HCT-15; 2.65 µM (inactive) in the assay on HL-60; 27.9 µM (inactive) in the assay with HOP-62. Further, the GI50 in the assay with K562 is 2.38 µM (inactive); in the assay on MDA-N, 6.35 µM (inactive); in the assay with NCI-H23 it was 2.34 µM (inactive); in the assay with NCI/ADR-RES, 3.4 µM (inactive); with OVCAR-4, 3.59 µM (inactive); in the assay on OVCAR-8, 2.31 µM (inactive). The GI50 is 3.03 µM (inactive) with SF-268; 19.8 µM (inactive) in the assay with SF-539; 3.6 µM (inactive) in the assay with SK-MEL-5; 8.97 µM (inactive) in the assay with SNB-19; 4.27 µM (inactive) in the assay with SW-620; 3.27 µM (inactive) in the assay on T47D. In the assay with UACC-62, the GI50 is 5.57 µM (inactive).
